This is an account of results in patent US12233060B2, “Inhibitors of Ataxia-Telangiectasia Mutated and Rad3-related protein kinase (ATR) for use in methods of treating cancer” (THE INSTITUTE OF CANCER RESEARCH: ROYAL CANCER HOSPITAL, priority 2016, dated 2025).

Holding throughout (format): cell-based, human
Test [1] deals with ARID1A mutant vs ARID1A wild type tumor cell lines. As to the kind of experiment: Five-day VX-970 sensitivity (AUC) in a diverse tumour cell line panel. Particulars: five days exposure, Student's t-test. As to the method: FIG. 2. In vitro ARID1A/ATR synthetic lethality. A. Chemical structure of VX-970. B. Western blot of ARID1A in human ARID1A isogenic HCT116 cells. C. Image of colonies in 6 well-plate clonogenic assay. HCT116 ARID1A isogenic (^+/+ and ^−/−) cell lines were exposed to increasing concentrations of the VE-821 (0, 0.1, 1 uM) and VX-970 (0, 0.01, 0.05 uM) for 14 days. D and E. Dose response clonogenic survival curve of HCT116 ARID1A isogenic (^+/+ and ^−/−) cell lines exposed to increasing concentrations of the VE-821 and VX-970 for 14 days. Error bars represent SD from triplicate experiments, ANOVA p-value of <0.0001. F. Area under curve (AUC) box whisker comparison plot for human tumor cell lines exposed to VX-970 for five days. ARID1A wild type tumor cell lines (n=15) were compared to ARID1A mutant cell lines (n=9). Student's t-test p=0.00594. G. Dose response clonogenic survival curve of mouse Arid1a isogenic ES cell lines. Experiment was performed as per (C). Error bars represent SD from triplicate experiments, ANOVA p value of <0.0001. H. Western blot of Arid1a protein expression in mouse ES Arid1a isogenic cells. […]
Short-term survival assays were performed in 384-well plates. […] Drug was added 24 h after seeding and cells were continuously exposed to the drug for five days, after which cell viability was estimated using CellTitre-Glo luminescence (Promega). […] Colonies were counted manually. […]

Test [2] has as its system HCT116 ARID1A+/+ and ARID1A−/− cells. As to the kind of experiment: Apoptosis assay (caspase-3/7 activity). To be noted: 24 hours exposure; p<0.05 Student's t-test. As to the method: (§1) FIG. 3. In vivo ARID1A/ATR synthetic lethality. A. Schematic of VX-970 therapy experiment in mice bearing established HCT116 ARID1A^+/+ and ARID1A^−/− xenografts. Cells were inoculated subcutaneously into nude mice and tumors allowed to establish for 10 days. Mice were then randomized to treatment regimens of either VX-970 (60 mg/kg, 4× weekly by oral gavage) or vehicle. Mice were then treated for a subsequent 40 days. Tumor volume was monitored twice weekly. B. Relative tumor volume plot from (A) showing efficacy of VX-970 and selectivity for ARID1A^−/− xenografts* p=0.024, ANOVA. C. Schematic of tumor incidence experiment in mice with non-established HCT116 ARID1A^+/+ and ARID1A^−/− xenografts. […] Tumor volume was monitored twice weekly and overall tumour incidence was assessed 40 days later. […] PARP-1, cleaved PARP-1 (85 kDa fragment) and tubulin were detected by western blot. […] Caspase3/7 activity was assessed using Caspase-Glo and total cellular viability was estimated using CellTitre-Glo. Luminescence ratios for Caspase-Glo (i.e. apoptotic cells) and CellTitre-Glo (ie viable cells) was determined for each dose and normalized to DMSO treated samples. *Student's t-test, p<0.05. […]
(§2) FIG. 5. […] The percentage of cells in G2/M was measured by FACS following PI staining. […] A minimum of 50 anaphases were scored in 3 biological replicate experiments. *p=0.023, Student's t-test. […]

Test [3] shares this test system. As to the kind of experiment: PARP cleavage western blot. To be noted: 24 hours exposure; camptothecin 1 uM positive control. How it is done: as §1, §2
In general terms: A western blot detects proteins with antibodies after separation by electrophoresis.

`CNCc1ccc(-c2cc(-c3nc(-c4ccc(S(=O)(=O)C(C)C)cc4)cnc3N)on2)cc1` [VX-970, 5-[4-(Isopropylsulfonyl)phenyl]-3-(3-{4-[(methylamino)methyl]phenyl}-1,2-oxazol-5-yl)-2-pyrazinamine]: the “sensitivity of ARID1A mutant (n=9) vs non-mutant (n=15) tumour cell lines” value in test [1] was “significantly more sensitive to VX-970”. Further, the “caspase-3/7 activation, ARID1A−/− vs ARID1A+/+” value in test [2] is reported as “higher caspase-3/7 activation”. Moreover, the “PARP-cleavage, ARID1A−/− vs ARID1A+/+” value in test [3] is on record as “far higher levels of PARP-cleavage”.
